Laboratory results reported in patent US20060234987A1, “Neuroprotective benzo 1 3 oxathiol 2 ones” (priority 2003, published 2006).

test system: SCG neurons; test: Protection of SCG neurons from anti-NGF killing; format: cell-based, Sprague Dawley rats; conditions: Rattus norvegicus, Neuron, 48 h, read-out: IC50, rescue from anti-NGF killing of cultured SCG neurons
Protocol: Neurotrophins are critical to the growth, development, and survival of small fiber neurons of the PNS. SCG neurons are neurons of the PNS that undergo apoptosis upon NGF withdrawal. In a typical experiment SCG neurons are cultured in the presence of NGF, which induces survival and neurite out-growth. After 5 days the NGF is removed by either the addition of anti-NGF polyclonal antibody (Sigma) or by repeated washings (4 times) with NGF free media, resulting in the apoptosis of up to 90% of the neurons after 48 hours, as measured by MTS staining. The addition of selected compounds of Formula I to the final cellular media provides upwards of 100% protection, at drug concentrations ranging from 10 to 50 μM (see Example 62).
Protection of SCG neurons from anti-NGF killing. SCG neurons were isolated from day 1 neonatal Sprague Dawley rats, plated at a cell density of 5,000 cells/well, and incubated in Biowhittaker Ultraculture containing 1% Penstrep, 1% L-glutamine, 0.7% ARAC, 3% rat serum, and NGF (50 ng/mL, Calomone Labs), at 37° C., under a 5% CO2 atmosphere. After 4 days the cells were treated with anti-NGF antibody (Sigma). At this time compound was added and the cells were maintained serum and NGF free for 48 hours, at which time viability of the neurons was assessed using Alamar Blue (Medicorp) staining. Table 3 summarizes selected IC50 values from compounds tested using this protocol.

| SMILES | IC50 [µM] |
| --- | --- |
| Cc1cc(OC(=O)NC2CCCCC2)cc2sc(=O)oc12 [Compound 31, 5-(N-Cyclohexylcarbamoyloxy)-7-methylbenzo[1,3]oxathiol-2-one] | 35 |
| O=c1oc2c(-c3ccc(Cl)cc3Cl)cc(O)cc2s1 [Compound 41, 7-(2,4-dichlorophenyl)-5-hydroxybenzo[1,3]oxathiol-2-one] | 7 |
| O=c1oc2c(-c3ccc(Br)cc3)cc(O)cc2s1 [Compound 44, 7-(4-bromophenyl)-5-hydroxybenzo[1,3]oxathiol-2-one] | 20 |

same assay, conditions: Rattus norvegicus, Neuron; anti-NGF antibody, 48 hours, Alamar Blue viability; read-out: IC50, rescue from anti-NGF killing of cultured SCG neurons

| SMILES | IC50 [µM] |
| --- | --- |
| Cc1cccc(-c2cc(OC(=O)c3ccccc3Cl)cc3sc(=O)oc23)c1 [Compound 48, 5-(2-chlorophenylcarbonyloxy)-7-(3-methylphenyl)benzo[1,3]oxathiol-2-one] | 28 |
| O=c1oc2ccc(Nc3c(Cl)cc(Br)cc3Cl)cc2s1 [Compound 58, 5-(4-bromo-2,6-dichloroanalino)benzo[1,3]oxathiol-2-one] | 50 |
| O=c1oc2c(-c3cc(Cl)ccc3Cl)cc(O)cc2s1 [Compound 42, 7-(2,5-dichlorophenyl)-5-hydroxybenzo[1,3]oxathiol-2-one] | 17 |
| O=c1oc2c(Sc3ccccc3C(F)(F)F)cc(O)cc2s1 [Compound 18, 5-hydroxy-7-((2-Trifluoromethylphenyl)sulfanyl)benzo[1,3]oxathiol-2-one] | > 30 |
| O=C(Oc1cc(-c2ccccc2)c2oc(=O)sc2c1)c1sc2ccccc2c1Cl [Compound 33, 5-(3-chlorobenzothiophen-2-ylcarbonyloxy)-7-phenylbenzo[1,3]oxathiol-2-one] | > 30 |
| O=c1oc2c3c4c(cc2s1)CCCN4CCC3 [Compound 57] | 50 |
| O=c1oc2c(Sc3ccccc3)cc(O)c(Sc3ccc4ccccc4c3)c2s1 [Compound 29, 5-hydroxy-4-(2-naphthylthio)-7-((phenyl)sulfanyl)benzo[1,3]oxathiol-2-one] | > 30 |
| O=c1oc2c(-c3ccc(-c4ccccc4)cc3)cc(O)cc2s1 [Compound 54, 7-biphenyl-5-hydroxybenzo[1,3]oxathiol-2-one] | 23 |
| CCc1ccccc1Sc1cc(O)cc2sc(=O)oc12 [Compound 12, 7-((2-Ethylphenyl)sulfanyl)-5-hydroxybenzo[1,3]oxathiol-2-one] | > 30 |
| O=c1oc2c(-c3ccc(Cl)c(Cl)c3)cc(O)cc2s1 [Compound 43, 7-(3,4-dichlorophenyl)-5-hydroxybenzo[1,3]oxathiol-2-one] | 7 |
| COc1ccc(-c2cc(O)cc3sc(=O)oc23)cc1 [Compound 53, 5-hydroxy-7-(4-methoxyphenyl)benzo[1,3]oxathiol-2-one] | > 30 |
| O=c1oc2c(-c3cccc(Cl)c3)cc(O)cc2s1 [Compound 37, 7-(3-chlorophenyl)-5-hydroxybenzo[1,3]oxathiol-2-one] | > 30 |
| O=c1oc2c([S+]([O-])c3ccc4ccccc4c3)cc(O)cc2s1 (stereo not shown) [Compound 24, 5-Hydroxy-7-((2-naphthyl)sulfinyl)benzo[1,3]oxathiol-2-one] | > 30 |
| O=c1oc2c(-c3ccccc3Cl)cc(O)cc2s1 [Compound 36, 7-(2-chlorophenyl)-5-hydroxybenzo[1,3]oxathiol-2-one] | 16 |
| CCSc1cc(O)cc2sc(=O)oc12 [Compound 5, 7-Ethylsulfanyl-5-hydroxybenzo[1,3]oxathiol-2-one] | > 30 |
| CC(C)c1ccccc1Sc1cc(O)cc2sc(=O)oc12 [Compound 14, 5-hydroxy-7-((2-iso-Propylphenyl)sulfanyl)benzo[1,3]oxathiol-2-one] | 30 |
| Cc1cccc(C)c1-c1cc2oc(=O)sc2cc1O [Compound 50, 6-(2,6-dimethylphenyl)-5-hydroxybenzo[1,3]oxathiol-2-one] | 22 |
| CCNc1cc(C)cc2sc(=O)oc12 [Compound 56, 7-ethylamino-5-methylbenzo[1,3]oxathiol-2-one] | 40 |
| O=c1oc2ccc(O)c(Sc3nc4ccccc4s3)c2s1 [Compound 21, 4-((Benzothiazol-2-yl)sulfanyl)-5-hydroxybenzo[1,3]oxathiol-2-one] | 50 |
| O=c1oc2c(-c3cccc(I)c3)cc(O)cc2s1 [Compound 45, 5-hydroxy-7-(3-iodophenyl)benzo[1,3]oxathiol-2-one] | 7 |
| O=c1oc2c(-c3ccc(Cl)cc3)cc(O)cc2s1 [Compound 39, 7-(4-chlorophenyl)-5-hydroxybenzo[1,3]oxathiol-2-one] | 30 |
| Cc1cccc(C)c1Sc1cc(O)cc2sc(=O)oc12 [Compound 13, 7-((2,6-Dimethylphenyl)sulfanyl)-5-hydroxybenzo[1,3]oxathiol-2-one] | > 30 |
| CC(C)(C)c1ccc(Sc2cc(O)cc3sc(=O)oc23)cc1 [Compound 17, 7-((4-tert-Butylphenyl)sulfanyl)-5-hydroxybenzo[1,3]oxathiol-2-one] | 25 |

same assay, conditions: anti-NGF antibody, 48 hours, Alamar Blue viability; read-out: IC50, rescue from anti-NGF killing of cultured SCG neurons

| SMILES | IC50 [µM] |
| --- | --- |
| O=c1oc2c([S+]([O-])Cc3ccccc3)cc(O)cc2s1 (stereo not shown) [Compound 6] | > 30 |

same assay, conditions: at 10 μM compound

| SMILES | rescue from anti-NGF killing, % at 10 μM [% at 10 μM] |
| --- | --- |
| CC(C)c1ccccc1Sc1cc2oc(=O)sc2cc1O [Compound 15, 5-hydroxy-6-((2-iso-Propylphenyl)sulfanyl)benzo[1,3]oxathiol-2-one] | 40 |

same assay, conditions: at 30 μM compound

| SMILES | rescue from anti-NGF killing, % at 30 μM [% at 30 μM] |
| --- | --- |
| O=c1oc2c(-c3ccccc3C(F)(F)F)cc(O)cc2s1 [Compound 51, 5-hydroxy-7-(2-trifluoromethylphenyl)benzo[1,3]oxathiol-2-one] | 38 |
| O=c1oc2c(-c3ccc(F)cc3)cc(O)cc2s1 [Compound 35, 7-(4-fluorophenyl)-5-hydroxybenzo[1,3]oxathiol-2-one] | 40 |
| CC(C)c1ccc(Sc2cc(O)cc3sc(=O)oc23)cc1 [Compound 16, 7-(4-iso-Propylphenylthio)-5-hydroxybenzo[1,3]oxathiol-2-one] | 42 |

same assay, conditions: at 50 μM compound

| SMILES | rescue from anti-NGF killing, % at 50 μM [% at 50 μM] |
| --- | --- |
| Cc1cccc(C)c1-c1cc(O)cc2sc(=O)oc12 [Compound 49, 7-(2,6-dimethylphenyl)-5-hydroxybenzo[1,3]oxathiol-2-one] | 40 |
| CCc1cccc(CC)c1Nc1ccc2oc(=O)sc2c1 [Compound 59, 6-(2,6-diethylanalino)benzo[1,3]oxathiol-2-one] | 38 |
| O=C(Oc1cc(-c2cccc(Cl)c2)c2oc(=O)sc2c1)c1ccccc1Cl [Compound 38, 5-(2-chlorophenylcarbonyloxy)-7-(3-chlorophenyl)benzo[1,3]oxathiol-2-one] | 40 |
